In patent US10968218B2, “Tetrahydropyridopyrimidines for the treatment and prophylaxis of hepatitis B virus infection” (Hoffmann-La Roche Inc., priority 2016, dated 2021):

Legend:
HBV DNA = HBV DNA assay (real-time qPCR/TaqMan of extracellular HBV DNA, HepG2.2.15 cells); format: cell-based; conditions: Hepatitis B virus, 144 h; Anti HBV DNA production activity in HepG2.2.15 cells, supernatant, six days after treatment
Description: (§1) HepG2.2.15 cells (Acs et al. Proc Natl Acad Sci USA, 84, (1987), 4641-4), a constitutively HBV-expressing cell line were cultured in DMEM+Glutamax-I medium (Invitrogen, Carlsbad, Calif., USA), supplemented with 10% fetal bovine serum (Invitrogen) and G418 (Invitrogen) at a final concentration of 200 mg/L and maintained in 5% CO2 at 37° C.
The assay employs real-time qPCR (TaqMan) to directly measure extracellular HBV DNA copy number in the cell supernatant. HepG2.2.15 cells were plated in 96-well microtiter plates before treatment with complete medium (DMEM, Glutamax, 10% FBS, 1% Penicillin/Streptomycin, 250 μg/mL Genetycin, final DMSO concentration is 1%). Only the interior wells were utilized to reduce “edge effects” observed during cell culture, the exterior wells were filled with complete medium to help minimize sample evaporation. The HepG2.2.15 cells were treated 1 h later with various concentrations of a test compound in duplicate (top concentration used at 5 μM, 2 μM or 0.5 μM according to the HBsAg IC50 observed, with 1/3 successive dilutions (total of 10 dilutions). Six days following the initial administration of the test compound, the cell culture supernatant was collected; DNA extraction was performed by automated system (Magnapure) and then used in a real-time qPCR/TaqMan assay to determine HBV DNA copy numbers. Antiviral activity was calculated from the reduction in HBV DNA levels (IC50). The compounds of the present invention were tested for their capacity to inhibit HBV DNA as described herein.

HBsAg = HBsAg assay (CLIA of secreted HBsAg in HepG2.2.15 culture supernatant); format: cell-based, HBV; conditions: Hepatitis B virus
Description: as §1
HepG2.2.15 cells were seeded in duplicate into white, 96-well plates at 1.5×10^4 cells/well. The cells were treated with a three-fold serial dilution series of the compounds in DMSO. The final DMSO concentration in all wells was 1% and DMSO was used as no drug control.
The HBsAg chemiluminescence immunoassay (CLIA) kit (Autobio Diagnostics Co., Zhengzhou, China, Catalog number: CL0310-2) was used to measure the levels of secreted HBV antigens semi-quantitatively. For the detection 50 μL/well culture supernatant was used and HBsAg was quantified using HBsAg chemiluminescence immunoassay (CLIA) kit (Autobio Diagnostics Co., Zhengzhou, China, Catalog number: CL0310-2), 50 μL of the supernatant was transferred to the CLIA assay plate and 50 μL of enzyme conjugate reagent was added into each well. The plates were sealed and gently agitated for 1 hour at room temperature. The supernatant-enzyme-mixture was discarded and wells were washed 6 times with 300 μL of PBS. The residual liquid was removed by plating the CLIA plate right side down on absorbent tissue paper. 25 μL of substrates A and B were added to each well. Luminance was measured using a luminometer (Mithras LB 940 Multimode Microplate Reader) after 10 minutes incubation. Dose-response curves were generated and the IC50 value was extrapolated by using the E-WorkBook Suite (ID Business Solutions Ltd., Guildford, UK). The IC50 was defined as the compound concentration at which HBsAg secretion was reduced by 50% compared to the no drug control.
The compounds according to formula I were tested for their capacity to inhibit HBsAg as described herein.

SMILES | IC50 (HBV DNA) | IC50 (HBsAg)
COc1cc(F)nc(N2CCc3nc(-c4cscn4)ncc3C2C)c1 (stereo not drawn) [Example 5, 4-[6-(6-Fluoro-4-methoxy-2-pyridyl)-5-methyl-7,8-dihydro-5H-pyrido[4,3-d]pyrimidin-2-yl]thiazole] | 8.7 nM | 23 nM
CC1c2cnc(-c3cscn3)nc2CCN1c1cc(F)nc(N2CCN(S(C)(=O)=O)CC2)c1 (stereo not drawn) [Example 20, 4-[6-[2-fluoro-6-(4-methylsulfonylpiperazin-1-yl)-4-pyridyl]-5-methyl-7,8-dihydro-5H-pyrido[4,3-d]pyrimidin-2-yl]thiazole] | 20.3 nM | 13 nM
COc1cc(F)nc(N2CCc3nc(-c4ncc[nH]4)ncc3C2C)c1 (stereo not drawn) [Example 26, 6-(6-Fluoro-4-methoxy-2-pyridyl)-2-(1H-imidazol-2-yl)-5-methyl-7,8-dihydro-5H-pyrido[4,3-d]pyrimidine] | 5.7 nM | 31 nM
CC1c2cnc(-c3cscn3)nc2CCN1c1cc(F)cc(OCC(F)F)n1 (stereo not drawn) [Example 36, 4-[6-[6-(2,2-difluoroethoxy)-4-fluoro-2-pyridyl]-5-methyl-7,8-dihydro-5H-pyrido[4,3-d]pyrimidin-2-yl]thiazole] |  | 112 nM
CC1c2cnc(-c3cscn3)nc2CCN1c1cc(F)nc(OCC2CCOC2)c1 (stereo not drawn) [Example 37, 4-[6-[2-fluoro-6-(tetrahydrofuran-3-ylmethoxy)-4-pyridyl]-5-methyl-7,8-dihydro-5H-pyrido[4,3-d]pyrimidin-2-yl]thiazole] |  | 70 nM
CC1c2cnc(-c3cscn3)nc2CCN1c1cc(OCC2CCOC2)cc(F)n1 (stereo not drawn) [Example 38, 4-[6-[6-fluoro-4-(tetrahydrofuran-3-ylmethoxy)-2-pyridyl]-5-methyl-7,8-dihydro-5H-pyrido[4,3-d]pyrimidin-2-yl]thiazole] |  | 20 nM
CC1c2cnc(-c3cscn3)nc2CCN1c1cc(F)cc(OCC2CCOC2)n1 (stereo not drawn) [Example 39, 4-[6-[4-fluoro-6-(tetrahydrofuran-3-ylmethoxy)-2-pyridyl]-5-methyl-7,8-dihydro-5H-pyrido[4,3-d]pyrimidin-2-yl]thiazole] |  | 139 nM
CC1c2cnc(-c3cscn3)nc2CCN1c1cc(F)nc(OCCCN2CCCC2=O)c1 (stereo not drawn) [Example 40, 1-[3-[[6-fluoro-4-(5-methyl-2-thiazol-4-yl-7,8-dihydro-5H-pyrido[4,3-d]pyrimidin-6-yl)-2-pyridyl]oxy]propyl]pyrrolidin-2-one] |  | 222 nM
CC1c2cnc(-c3cscn3)nc2CCN1c1cc(OCCCN2CCCC2=O)cc(F)n1 (stereo not drawn) [Example 41, 1-[3-[[2-fluoro-6-(5-methyl-2-thiazol-4-yl-7,8-dihydro-5H-pyrido[4,3-d]pyrimidin-6-yl)-4-pyridyl]oxy]propyl]pyrrolidin-2-one] |  | 102 nM
COc1cc(F)nc(N2CCc3nc(-c4ncsc4C)ncc3C2C)c1 (stereo not drawn) [Example 42, 4-[6-(6-Fluoro-4-methoxy-2-pyridyl)-5-methyl-7,8-dihydro-5H-pyrido[4,3-d]pyrimidin-2-yl]-5-methyl-thiazole] |  | 282 nM
COc1cc(F)nc(N2CCc3nc(-c4ncn[nH]4)ncc3C2C)c1 (stereo not drawn) [Example 43, 6-(6-Fluoro-4-methoxy-2-pyridyl)-5-methyl-2-(1H-1,2,4-triazol-5-yl)-7,8-dihydro-5H-pyrido[4,3-d]pyrimidine] | 1.7 nM | 8 nM
